Here are results for five compounds from US5807541A, “NSAID/fluoride periodontal compositions and methods” (Sepracor, Inc., priority 1996, dated 1998).

Where two headings read alike, the source gives them in different places.

Data set [1] deals with PGE2 secretion in human promyelocytic leukemia cells (HL-60 cells). Put plainly: PGE2 secretion in human promyelocytic leukemia (HL-60) cells (A23187-induced), fluoride and NSAIDs alone or combined.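 As to all read-outs here: fluoride given as NaF, each condition run in duplicate, signals corrected for background and referenced to control, IC50 obtained by nonlinear regression Hill fitting of the curve.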 Conditions: for % Inhibition of A23187-induced PGE2 secretion / % stimulation of A23187-induced PGE2 secretion: mean of two determinations; for % inhibition of PGE2 / % stimulation of PGE2 (value in parentheses): Table II.

In data set [2] the test system is dental caries. Conditions: professionally applied topical fluoride, dentifrices and mouthwashes; high risk patients; cited from earlier work.
The subject of data set [3] is prostaglandin production in endothelial cells. To be noted: under certain circumstances; cited from earlier work.
Data set [4] deals with G proteins. Conditions: under certain circumstances; cited from earlier work.
[5] abbreviates: Homo sapiens, HL-60, read-out: IC50, inhibition of PGE2 secretion, summary of Tables III and IV.
Where [6] appears, read: ketoprofen enantiomer 10^-7 M + F 0.05%.
The mark [7] stands for this setting: ketoprofen enantiomer 10^-7 M + F 0.1%.
Where [8] appears, read: ketoprofen enantiomer 10^-7 M + F 0.5%.
Setting [9] is: ketoprofen enantiomer 10^-7 M, F 0%.
The mark [10] stands for this setting: ketoprofen enantiomer 10^-8 M + F 0.05%.
The mark [11] stands for this setting: ketoprofen enantiomer 10^-8 M + F 0.1%.
Where [12] appears, read: ketoprofen enantiomer 10^-8 M + F 0.5%.
Where [13] appears, read: ketoprofen enantiomer 10^-8 M, F 0%.
Setting [14] is: ketoprofen enantiomer 10^-9 M + F 0.05%.
Setting [15] is: ketoprofen enantiomer 10^-9 M + F 0.1%.
Setting [16] is: ketoprofen enantiomer 10^-9 M + F 0.5%.
Where [17] appears, read: ketoprofen enantiomer 10^-9 M, F 0%.
[18] abbreviates: ketoprofen enantiomer 10^-10 M + F 0.05%, 0.0001 µM.
Setting [19] is: ketoprofen enantiomer 10^-10 M + F 0.05%.
Where [20] appears, read: ketoprofen enantiomer 10^-10 M + F 0.1%.
Where [21] appears, read: ketoprofen enantiomer 10^-10 M + F 0.5%.
Where [22] appears, read: ketoprofen enantiomer 10^-10 M, F 0%.
Where [23] appears, read: Homo sapiens, HL-60, read-out: % inhibition of PGE2.

Consider `C[C@H](C(=O)O)c1cccc(C(=O)c2ccccc2)c1` [(S)-Ketoprofen], for which, in data set [1] (setting [5]), the IC50 is around 0.4 nM. The “relative potency, inhibition of PGE2 secretion (in words)” value in data set [1] (S- vs R-ketoprofen) is reported as “more potent than R-ketoprofen”. Also, the “% Inhibition of A23187-induced PGE2 secretion” value in data set [1] (setting [6]) was found to be 95%; in data set [1] (setting [7]) it was 98%; in data set [1] (setting [8]), 99%; in data set [1] (setting [9]), 96%; in data set [1] (setting [10]), 82%; in data set [1] (setting [11]) it was 89%. The “% Inhibition of A23187-induced PGE2 secretion” value was found to be 98% in data set [1] (setting [12]); 89% in data set [1] (setting [13]); 35% in data set [1] (setting [14]); 54% in data set [1] (setting [15]); 100% in data set [1] (setting [16]); 70% in data set [1] (setting [17]). The “% Inhibition of A23187-induced PGE2 secretion” value in data set [1] (setting [20]) is 18%; in data set [1] (setting [21]) it was 100%; in data set [1] (setting [22]), 10%. In addition, the “stimulation factor, A23187-induced PGE2 secretion” value (“stimulation factor” for short) in data set [1] (setting [18]) turned out to be 1.22 ×. Also, in data set [1] (setting [19]), the “% stimulation of A23187-induced PGE2 secretion” value is 27%.

With `[F-].[Na+]` [fluoride, sodium fluoride], the “prevention of dental caries (in words)” value in data set [2] is “effective in preventing dental caries among high risk patients”. Moreover, the “prostaglandin production in endothelial cells (in words)” value in data set [3] is recorded as “induce prostaglandin production”. Also, in data set [4], the “activation of G proteins (in words)” value was “activate G proteins”. Further, the “PGE2 secretion, % Control, 1st Value” is given as 80.1% in data set [1] (F 0.0001% (52 μM)); 94.1% in data set [1] (F 0.001% (520 μM)); 117.7% in data set [1] (F 0.01% (5.2 mM)); 188.7% in data set [1] (F 0.02% (10.4 mM)); 157.9% in data set [1] (F 0.05% (26 mM)); 142.1% in data set [1] (F 0.07% (36 mM)). In addition, the “PGE2 secretion, % Control, 1st Value” in data set [1] (F 0.1% (52 mM)) turned out to be 115.1%; in data set [1] (F 0.2% (104 mM)) it was 5.2%; in data set [1] (F 0.3% (156 mM)) it was 4.9%; in data set [1] (F 0.5% (260 mM)), 0.5%. For the same compound, the “PGE2 secretion, % Control, 2nd value” amounted to 87.4% in data set [1] (F 0.0001% (52 μM)); 74.9% in data set [1] (F 0.001% (520 μM)); 99.8% in data set [1] (F 0.01% (5.2 mM)); 208.8% in data set [1] (F 0.02% (10.4 mM)); 177.3% in data set [1] (F 0.05% (26 mM)); 142.1% in data set [1] (F 0.07% (36 mM)). In addition, the “PGE2 secretion, % Control, 2nd value” in data set [1] (F 0.1% (52 mM)) came out at 112.6%; in data set [1] (F 0.2% (104 mM)) it was 8.9%; in data set [1] (F 0.3% (156 mM)), 3.1%; in data set [1] (F 0.5% (260 mM)), 1.7%. Also, the “PGE2 secretion, % Control, mean” value in data set [1] (F 0.0001% (52 μM)) worked out at 83.7%; in data set [1] (F 0.001% (520 μM)) it was 84.5%; in data set [1] (F 0.01% (5.2 mM)) it was 108.7%; in data set [1] (F 0.02% (10.4 mM)), 198.8%; in data set [1] (F 0.05% (26 mM)), 167.6%; in data set [1] (F 0.07% (36 mM)) it was 142.1%. Moreover, the “PGE2 secretion, % Control, mean” value amounted to 113.9% in data set [1] (F 0.1% (52 mM)), 7.0% in data set [1] (F 0.2% (104 mM)), 4.0% in data set [1] (F 0.3% (156 mM)) and 1.1% in data set [1] (F 0.5% (260 mM)). For the same compound, the “stimulation factor” value in data set [1] (F 0.05%, ketoprofen 0) worked out at 1.16 ×. Besides, the “% stimulation of A23187-induced PGE2 secretion” value in data set [1] (F 0.05%, ketoprofen 0) was 16%. Also, the “% Inhibition of A23187-induced PGE2 secretion” value is reported as 26% in data set [1] (F 0.1%, ketoprofen 0) and 96% in data set [1] (F 0.5%, ketoprofen 0). In addition, the “production of prostaglandins (in words)” value in data set [1] (concentration range employed for the prevention of dental caries) is “stimulates the production of prostaglandins”. For the same compound, in data set [1] (fluoride 0.02%), the “maximum stimulation of PGE2 secretion” value was 99%. The “effect of fluoride on the inhibitory effects of R- and S-ketoprofen (in words)” value in data set [1] (fluoride 26 mM) was “decrease of the inhibitory effects of R- and S-ketoprofen”. The “effect of fluoride in combination with R- and S-ketoprofen (in words)” value in data set [1] (fluoride 260 mM) is given as “amplifies its inhibitory effects”. Also, the “effect on PGE2 secretion (in words)” value in data set [1] (fluoride above 0.2%) is given as “completely inhibits PGE2 secretion”; in data set [1] (fluoride from 0.0001 to 0.01%) it was “no effect”; in data set [1] (fluoride from 0.02 to 0.07%), “induces stimulation”; in data set [1] (fluoride ion above about 50 mM (above about 0.1% w/v)) it was “inhibitory to PGE2 secretion”. Further, in data set [1] (fluoride alone, 26 mM (0.05%)), the “stimulation of PGE2 production” value stood at 108%. For the same compound, the “inhibition of PGE2 production” value in data set [1] (fluoride alone, 52 mM) was found to be 12%; in data set [1] (fluoride alone, 260 mM), 92%. Moreover, in data set [1] (fluoride below about 5 mM (below about 0.01% w/v)), the “effect on stimulated PGE2 secretion (in words)” value was “no significant effect”. Moreover, in data set [1] (fluoride ion at about 10 mM), the “peak production of PGE2, % of control” value turned out to be 200%. In addition, in data set [1] (fluoride ion between about 5 and about 50 mM), the “production of PGE2 (in words)” value is “stimulates the production of prostaglandin E2”.

In the case of `CC(C(=O)O)c1cccc(C(=O)c2ccccc2)c1` (racemic) [ketoprofen], in data set [1] (10^-10 M ketoprofen alone), the “inhibition of PGE2 (in words)” value is given as “undetected”. Further, the “PGE2 production (in words)” value in data set [1] (10^-10 M ketoprofen at 260 mM fluoride) is “totally inhibited”. In data set [1] (setting [23]), the inhibition at 0.001 µM was 40%. Further, the inhibition at 0.01 µM in data set [1] (setting [23]) is 63%. In addition, in data set [1] (setting [23]), the inhibition at 0.1 µM was determined as 82%. Further, the IC50 is 11.8 nM in data set [1] (Homo sapiens, HL-60, read-out: IC50, PGE2 production, racemic ketoprofen + 52 mM fluoride) and 2.8 nM in data set [1] (Homo sapiens, HL-60, read-out: IC50, PGE2 production, racemic ketoprofen alone (no F)). Moreover, in data set [1] (Homo sapiens, HL-60, read-out: inhibition of PGE2 levels), the inhibition at 0.0001 µM was 26%. Moreover, the “% inhibition of PGE2” value in data set [1] (racemic ketoprofen 10^-7 M + fluoride 26 mM) was 66%; in data set [1] (racemic ketoprofen 10^-7 M + fluoride 52 mM) it was 85%; in data set [1] (racemic ketoprofen 10^-7 M + fluoride 260 mM), 98%; in data set [1] (racemic ketoprofen 10^-8 M + fluoride 52 mM) it was 46%; in data set [1] (racemic ketoprofen 10^-8 M + fluoride 260 mM), 97%; in data set [1] (racemic ketoprofen 10^-9 M + fluoride 52 mM), 11%. The “% inhibition of PGE2” value in data set [1] (racemic ketoprofen 10^-9 M + fluoride 260 mM) amounted to 101%; in data set [1] (racemic ketoprofen 10^-10 M + fluoride 260 mM), 102%. Moreover, the “% stimulation of PGE2 (value in parentheses)” value in data set [1] (racemic ketoprofen 10^-9 M + fluoride 26 mM) and in data set [1] (racemic ketoprofen 10^-10 M + fluoride 26 mM) was 125% in each case. In data set [1] (fluoride 0.1% (52 mM) vs ketoprofen alone), the “increase of IC50 for ketoprofen by fluoride” value is reported as “approximately 4 fold”. Further, the “stimulation induced by F^- (in words)” value in data set [1] (highest concentration of ketoprofen (10^-7)) is on record as “overcome”.

Turning to `C[C@@H](C(=O)O)c1cccc(C(=O)c2ccccc2)c1` [(R)-Ketoprofen], in data set [1] (setting [5]), the IC50 is around 100 nM. Further, the “% Inhibition of A23187-induced PGE2 secretion” value in data set [1] (setting [6]) was 47%; in data set [1] (setting [7]), 75%; in data set [1] (setting [8]), 100%; in data set [1] (setting [9]), 81%; in data set [1] (setting [10]) it was 5%; in data set [1] (setting [11]), 32%. In addition, the “% Inhibition of A23187-induced PGE2 secretion” value is given as 99% in data set [1] (setting [12]); 39% in data set [1] (setting [13]); 2% in data set [1] (setting [15]); 99% in data set [1] (setting [16]); 6% in data set [1] (setting [17]); 23% in data set [1] (setting [20]). The “% Inhibition of A23187-induced PGE2 secretion” value in data set [1] (setting [21]) came out at 98%; in data set [1] (setting [22]) it was 14%. Besides, the “stimulation factor” value in data set [1] (ketoprofen enantiomer 10^-9 M + F 0.05%, 0.001 µM) came out at 1.14 ×; in data set [1] (setting [18]), 1.27 ×. Moreover, the “% stimulation of A23187-induced PGE2 secretion” value came out at 14% in data set [1] (setting [14]) and 27% in data set [1] (setting [19]).

For `COc1ccc2c(c1)c(CC(=O)O)c(C)n2C(=O)c1ccc(Cl)cc1` [indomethacin], in data set [1] (Homo sapiens, HL-60, read-out: IC50, A23187-induced PGE2 secretion, in the absence of fluoride), the IC50 worked out at 0.92 nM.

A word on the IC50: it is the concentration needed to halve the response being measured. The inhibition is the change of the read-out against control, counted positive when it falls.
